Experimental data taken from patent publication US12221422B2, “Compounds and their use for the treatment of alpha1-antitrypsin deficiency” (CENTESSA PHARMACEUTICALS (UK) LIMITED, priority 2018, dated 2025).

Key:
human Z A1AT = human Z A1AT (Homo sapiens, UniProt P01009, E366K); assay: Trypsin complex formation by human Z A1AT purified from plasma of treated huZ mice (Western blot); assay type: biochemical, huZ mouse; set-up: from tissue; host or cells: huZ (PiZZ) transgenic mice, line Z11.03, C57Bl/6 background; made in liver, measured in plasma; conditions: Z A1AT purified from plasma of huZ mice treated at 200 mg/kg twice a day by oral gavage for 10 days
human Z A1AT, sequence (P01009 25-418 E366K): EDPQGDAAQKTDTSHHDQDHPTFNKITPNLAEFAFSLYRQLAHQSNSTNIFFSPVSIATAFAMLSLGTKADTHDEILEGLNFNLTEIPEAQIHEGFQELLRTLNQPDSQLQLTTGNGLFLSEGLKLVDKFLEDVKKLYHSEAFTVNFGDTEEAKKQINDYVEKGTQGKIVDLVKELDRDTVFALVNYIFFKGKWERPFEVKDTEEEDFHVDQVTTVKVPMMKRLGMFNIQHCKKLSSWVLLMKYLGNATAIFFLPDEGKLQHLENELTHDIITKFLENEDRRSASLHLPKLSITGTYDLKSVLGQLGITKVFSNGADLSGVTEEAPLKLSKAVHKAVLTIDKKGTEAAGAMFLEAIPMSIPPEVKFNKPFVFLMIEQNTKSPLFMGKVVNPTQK
Method: The aim of the experiment was to purify human Z A1AT from three HuZ mice which had been treated with compound N,N-dimethyl-4-((6-oxopyrimidin-1(6H)-yl)methyl)benzamide (22.1e, 24.1a, 24.1b), then test the activity of the A1AT by reaction with increasing amounts of trypsin. Reaction of A1AT with the trypsin was analysed by western blot, probing with an anti-human A1AT antibody. A control plasma from a wild type mouse treated with the same compound (15.5b) was also included in the study.
Mice were treated with N,N-dimethyl-4-((6-oxopyrimidin-[…]-yl)methyl)benzamide at 200 mg/kg twice a day by oral gavage for 10 consecutive days. Mice had access to food (standard mouse chow, SAFE diets) and water ad libitum. On study day 10, each mouse was dosed 3.5-4.5 hours prior to terminal procedures. […]
100 μl of mouse plasma was diluted to 300 μl with 20 mM Tris, 150 mM NaCl, 5 mM EDTA, pH 7.4 (reaction and wash buffer) prior to purification. […] Residual A1AT in the plasma and plasma supernatant was quantified using a human serpinA1 ELISA (Human Serpin A1/α1-antitrypsin duo set ELISA, R& D Systems, DY1268) to confirm depletion of human A1AT. The concentration of the eluted fractions were also measured. The amount of eluted A1AT was determined by measuring by A280 using an extinction coefficient of 0.45. […]

[1] = Plasma protein binding, mouse plasma (rapid equilibrium dialysis); assay type: in vitro ADME; conditions: 37° C.
Method: The extent to which compounds of the invention bound to plasma proteins such as albumin and alpha-1 acid glycoprotein within human, rat or mouse plasma was determined by rapid equilibrium dialysis. Compounds were incubated at 5 μM for 4 hours at 37° C. Plasma protein binding for N,N-dimethyl-4-((6-oxopyrimidin-1(6H)-yl)methyl)benzamide in mouse plasma was 37.3%, in rat plasma was 14.8% and in human plasma was 30.6%.

TK6 cells = assay: In vitro micronucleus assay; assay type: cell-based; set-up: relative increase in cell count (RICC): dose or concentration left out as unconfirmed; conditions: for relative increase in cell count (RICC): vs concurrent negative control
Excerpt: The purpose of the in vitro micronucleus assay is to assess the ability of the test item to cause chromosome or spindle damage, or to interfere with the cell cycle, in ways which lead to the formation of micronuclei in the cytoplasm of TK6 cells. Chromosome defects are recognised as being the basis of a number of human genetic diseases. Micronuclei (MN) are the result of chromosome fragments or whole chromosomes remaining in the cytoplasm and not being incorporated into the nuclei of newly formed cells. These arise from damage to chromosomes leading to acentric fragments which cannot attach to the mitotic spindle; damage to the spindle apparatus preventing a chromosome from attaching to it or other interference with cell division. Assays were performed in the presence and absence of an exogenous mammalian oxidative metabolising system (S-9 mix, a liver post-mitochondrial fraction derived from the livers of Aroclor 1254 treated rats), to mimic mammalian metabolism. Cells were exposed to the test item for 3 hours and sampled 44 hours after the beginning of treatment. As a number of chemicals have been reported as only exerting positive effects following prolonged treatment, a continuous treatment of 27 hours in the absence of S-9 mix was also included. This was equivalent to 1.5 to 2.0 times the average generation time of cultured cells used in the assay. The test methodology was based on established procedures for in vitro micronucleus testing.
N,N-dimethyl-4-((6-oxopyrimidin-1(6H)-yl)methyl)benzamide was tested up to the regulatory maximum dose level of 1 mM […] in all treatments.

Q: With `CN(C)C(=O)c1ccc(Cn2cnccc2=O)cc1` [N,N-dimethyl-4-((6-oxopyrimidin-1(6H)-yl)methyl)benzamide] as the compound, how does the “activity of eluted human Z A1AT (complex formation with trypsin)” value (human Z A1AT) read?
A: native and fully active

Q: What about the fraction unbound at 4 h, 5 μM [1] of the same compound?
A: 0.627

Q: And the “relative increase in cell count (RICC)” value (TK6 cells; absence of S-9 mix, 3 hour treatment)?
A: 98%

Q: And the “relative increase in cell count (RICC)” value (TK6 cells; absence of S-9 mix, 27 hour treatment)?
A: 74%

Q: What about the “relative increase in cell count (RICC)” value (TK6 cells; presence of S-9 mix, 3 hour treatment) of the same compound?
A: 105%

Q: And the clastogenicity / aneugenicity (TK6 cells; presence or absence of S 9 mix)?
A: neither clastogenic nor aneugenic

Q: What about the cytotoxicity (TK6 cells; up to 1 mM, 27 hour treatment only) of the same compound?
A: only slight cytotoxicity

Q: What about the “percentage MN (% MN)” value (TK6 cells; with S-9 mix 3 hour, without S-9 mix 3 hour or 27 hour) of the same compound?
A: no statistically significant increases
